Assay results reported in patent US8927500B2, “Peptidomimetic macrocycles” (Aileron Therapeutics, Inc., priority 2012, dated 2015).
Like-named read-outs stand apart in the source and are kept apart here. Where a SMILES comes first, the peptide text is derived from it. Bridges are numbered along the chain shown (N, C = ends). [ ]: non-standard residue; d: D form. Trp(6-Cl) = N[C@@H](Cc1c[nH]c2cc(Cl)ccc12)C(=O)O; R8 = C=CCCCCCC[C@@](C)(N)C(=O)O; Cba = N[C@@H](CC1CCC1)C(=O)O; hLeu = CC(C)CC[C@H](N)C(=O)O; S5 = C=CCCC[C@](C)(N)C(=O)O; Nle = CCCC[C@H](N)C(=O)O; Ac3c = NC1(C(=O)O)CC1; Aib = CC(C)(N)C(=O)O

Legend:
[1] = molecular target: MDM2 (Homo sapiens, UniProt Q00987); test: Competitive fluorescence polarization assay for MDM2; type: binding; settings: competitive FP assay, MDM2
[2] = molecular target: T1, MDMX (Homo sapiens, UniProt O15151); test: Competitive fluorescence polarization assay for MDMX; type: binding; settings: competitive FP assay
T1 sequence (O15151 1-125): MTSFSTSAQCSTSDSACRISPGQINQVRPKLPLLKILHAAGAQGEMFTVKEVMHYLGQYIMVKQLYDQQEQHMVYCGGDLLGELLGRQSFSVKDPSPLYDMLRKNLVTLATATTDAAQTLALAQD

MDM2, sequence (Q00987 1-125): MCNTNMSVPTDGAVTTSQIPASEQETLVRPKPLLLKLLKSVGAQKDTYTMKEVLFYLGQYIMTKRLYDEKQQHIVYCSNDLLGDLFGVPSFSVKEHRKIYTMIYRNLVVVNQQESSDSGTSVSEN

IC50 ([1]; read-out: IC50 (MDM2)) | Ki ([1]; read-out: Ki (MDM2)) | IC50 ([2]; read-out: IC50 (MDMX)) | Ki ([2]; read-out: Ki (MDMX)) | SMILES | IC50 ([1]; IC50 (MDM2)) | Ki ([1]; Ki (MDM2)) | IC50 ([2]; IC50 (MDMX)) | Ki ([2]; Ki (MDMX))
< 10 nM | < 10 nM | 10 to 100 nM | < 10 nM | CCCC[C@H](NC(=O)[C@H](Cc1c[nH]c2ccccc12)NC(=O)[C@H](C)NC(=O)[C@]1(C)CCCC=CCCCCCC[C@@](C)(NC(=O)[C@H](Cc2ccccc2)NC(=O)[C@@H](NC(=O)[C@H](CC(C)C)NC(C)=O)[C@@H](C)O)C(=O)N[C@@H](CCC(=O)O)C(=O)N[C@@H](Cc2ccc(O)cc2)C(=O)N[C@@H](Cc2c[nH]c3ccccc23)C(=O)N[C@@H](C)C(=O)N[C@@H](CCC(N)=O)C(=O)N[C@@H](CC2CCC2)C(=O)N1)C(=O)N[C@H](C)C(N)=O [compound 271] (Ac-LTF[R8]EYWAQ[Cba][S5]AW[Nle][dA]-NH2; staple 4-11) |  |  |  | 
 | < 10 nM |  | < 10 nM | CC(=O)N[C@@H](CC(C)C)C(=O)N[C@H](C(=O)N[C@@H](Cc1ccccc1)C(=O)N[C@]1(C)CCCCCCC=CCCC[C@@](C)(C(=O)N[C@@H](CO)C(=O)N[C@@H](C)C(=O)N[C@@H](C)C(N)=O)NC(=O)[C@H](CC2CCC2)NC(=O)[C@H](CCC(N)=O)NC(=O)[C@H](C)NC(=O)[C@H](Cc2c[nH]c3ccccc23)NC(=O)[C@H](Cc2ccc(O)cc2)NC(=O)[C@H](Cc2c[nH]cn2)NC1=O)[C@@H](C)O (single isomer, unassigned) [compound 712] |  |  |  | 
10 to 100 nM | < 10 nM | 10 to 100 nM | 10 to 100 nM | CC(=O)N[C@@H](C)C(=O)N[C@@H](CC(C)C)C(=O)N[C@H](C(=O)N[C@@H](Cc1ccccc1)C(=O)N[C@]1(C)CCCCCCC=CCCC[C@@](C)(C(=O)N[C@@H](CO)C(=O)N[C@@H](C)C(=O)N[C@@H](C)C(N)=O)NC(=O)[C@H](CC2CCC2)NC(=O)[C@H](CCC(N)=O)NC(=O)[C@H](C)NC(=O)[C@H](Cc2c[nH]c3ccccc23)NC(=O)[C@H](Cc2ccc(O)cc2)NC(=O)[C@H](CCC(=O)O)NC1=O)[C@@H](C)O (single isomer, unassigned) [compound 328] |  |  |  | 
10 to 100 nM | < 10 nM | 100 to 1000 nM | 10 to 100 nM | CC(=O)N[C@@H](CC(C)C)C(=O)N[C@H](C(=O)N[C@@H](Cc1ccccc1)C(=O)N[C@]1(C)CCCCCCC=CCCC[C@@](C)(C(=O)N[C@@H](CO)C(=O)N[C@@H](C)C(=O)N[C@@H](Cc2ccccc2)C(N)=O)NC(=O)[C@H](CC2CCC2)NC(=O)[C@H](CCC(N)=O)NC(=O)[C@H](C)NC(=O)[C@H](Cc2c[nH]c3ccccc23)NC(=O)[C@H](Cc2ccc(O)cc2)NC(=O)[C@H](C)NC1=O)[C@@H](C)O [compound 258] (Ac-LTF[R8]AYWAQ[Cba][S5]SAF-NH2; staple 4-11) |  |  |  | 
10 to 100 nM | 10 to 100 nM | 100 to 1000 nM | 10 to 100 nM | CCCC[C@H](NC(=O)[C@H](Cc1c[nH]c2ccccc12)NC(=O)[C@H](C)NC(=O)[C@]1(C)CCCC=CCCCCCC[C@@](C)(NC(=O)[C@H](Cc2ccccc2)NC(=O)[C@@H](NC(=O)[C@H](CC(C)C)NC(C)=O)[C@@H](C)O)C(=O)N[C@@H](C)C(=O)N[C@@H](Cc2ccc(O)cc2)C(=O)N[C@@H](Cc2c[nH]c3ccccc23)C(=O)N[C@@H](C)C(=O)N[C@@H](CCC(N)=O)C(=O)N[C@@H](CC2CCC2)C(=O)N1)C(=O)N[C@@H](C)C(N)=O [compound 239] (Ac-LTF[R8]AYWAQ[Cba][S5]AW[Nle]A-NH2; staple 4-11) |  |  |  | 

More lines, now with the values behind:

SMILES | IC50 ([1]; read-out: IC50 (MDM2)) | Ki ([1]; read-out: Ki (MDM2)) | IC50 ([2]; read-out: IC50 (MDMX)) | Ki ([2]; read-out: Ki (MDMX)) | IC50 ([1]; IC50 (MDM2)) | Ki ([1]; Ki (MDM2)) | IC50 ([2]; IC50 (MDMX)) | Ki ([2]; Ki (MDMX))
CC[C@H](C)[C@H](NC(=O)[C@H](C)NC(=O)[C@H](C)NC(=O)[C@]1(C)CCCC=CCCCCCC[C@@](C)(NC(=O)[C@H](Cc2ccccc2)NC(=O)[C@@H](NC(=O)[C@H](CC(C)C)NC(C)=O)[C@@H](C)O)C(=O)N[C@@H](C)C(=O)N[C@@H](Cc2ccc(O)cc2)C(=O)N[C@@H](Cc2c[nH]c3cc(Cl)ccc23)C(=O)N[C@@H](C)C(=O)N[C@@H](CCC(N)=O)C(=O)N[C@@H](CC2CCC2)C(=O)N1)C(=O)N[C@H](C)C(N)=O [compound 266] (Ac-LTF[R8]AY[Trp(6-Cl)]AQ[Cba][S5]AAI[dA]-NH2; staple 4-11) | 10 to 100 nM | < 10 nM | 100 to 1000 nM | 10 to 100 nM |  |  |  | 
CCCC[C@H](NC(=O)[C@H](C)NC(=O)[C@H](C)NC(=O)[C@]1(C)CCCC=CCCCCCC[C@@](C)(NC(=O)[C@H](Cc2ccccc2)NC(C)=O)C(=O)N[C@@H](C)C(=O)N[C@@H](Cc2ccc(O)cc2)C(=O)N[C@@H](Cc2c[nH]c3ccccc23)C(=O)N[C@@H](CCC(=O)O)C(=O)NC2(CC2)C(=O)N[C@@H](CC(C)C)C(=O)N1)C(N)=O [compound 14] (Ac-F[R8]AYWE[Ac3c]L[S5]AA[Nle]-NH2; staple 2-9) | 10 to 100 nM | < 10 nM | 10 to 100 nM | < 10 nM |  |  |  | 
CCCC[C@H](NC(=O)[C@H](C)NC(=O)[C@H](C)NC(=O)[C@]1(C)CCCC=CCCCCCC[C@@](C)(NC(=O)[C@H](Cc2ccccc2)NC(=O)[C@@H](NC(=O)[C@H](CC(C)C)NC(C)=O)[C@@H](C)O)C(=O)N[C@@H](C)C(=O)N[C@@H](Cc2ccc(O)cc2)C(=O)N[C@@H](Cc2c[nH]c3ccccc23)C(=O)N[C@@H](CO)C(=O)N[C@@H](CCC(N)=O)C(=O)N[C@@H](CCC(C)C)C(=O)N1)C(=O)N[C@@H](C)C(N)=O (single isomer, unassigned) [compound 312] | 10 to 100 nM | 10 to 100 nM | 100 to 1000 nM | 10 to 100 nM |  |  |  | 
CCCC[C@H](NC(=O)[C@H](C)NC(=O)[C@H](C)NC(=O)[C@]1(C)CCCC=CCCCCCC[C@@](C)(NC(=O)[C@H](Cc2ccccc2)NC(=O)[C@@H](NC(=O)[C@H](CC(C)C)NC(C)=O)[C@@H](C)O)C(=O)N[C@@H](C)C(=O)N[C@@H](Cc2ccc(O)cc2)C(=O)N[C@@H](Cc2c[nH]c3ccccc23)C(=O)N[C@@H](C)C(=O)N[C@@H](CCC(N)=O)C(=O)N[C@@H](CC(C)C)C(=O)N1)C(=O)N[C@H](CC(C)C)C(N)=O (single isomer, unassigned) [compound 85] | 10 to 100 nM | < 10 nM | 100 to 1000 nM | 10 to 100 nM |  |  |  | 
CCCC[C@H](NC(=O)[C@H](Cc1c[nH]c2ccccc12)NC(=O)[C@H](C)NC(=O)[C@]1(C)CCCC=CCCCCCC[C@@](C)(NC(=O)[C@H](Cc2ccccc2)NC(=O)[C@@H](NC(=O)[C@H](CCC(=O)O)NC(C)=O)[C@@H](C)O)C(=O)N[C@@H](CCC(=O)O)C(=O)N[C@@H](Cc2ccc(O)cc2)C(=O)N[C@@H](Cc2c[nH]c3ccccc23)C(=O)N[C@@H](C)C(=O)N[C@@H](CCC(N)=O)C(=O)N[C@@H](CC2CCC2)C(=O)N1)C(=O)N[C@H](C)C(N)=O [compound 272] (Ac-ETF[R8]EYWAQ[Cba][S5]AW[Nle][dA]-NH2; staple 4-11) | < 10 nM | < 10 nM | 10 to 100 nM | < 10 nM |  |  |  | 
CCCC[C@H](NC(=O)[C@H](C)NC(=O)[C@H](C)NC(=O)[C@]1(C)CCCC=CCCCCCC[C@@](C)(NC(=O)[C@H](Cc2ccccc2)NC(=O)[C@@H](NC(=O)[C@H](CC(C)C)NC(C)=O)[C@@H](C)O)C(=O)N[C@@H](C)C(=O)N[C@@H](Cc2ccc(O)cc2)C(=O)N[C@@H](Cc2c[nH]c3ccccc23)C(=O)N[C@@H](C)C(=O)N[C@@H](CCC(N)=O)C(=O)N[C@@H](CC(C)C)C(=O)N1)C(=O)NC(C)(C)C(N)=O (single isomer, unassigned) [compound 398] | 10 to 100 nM | < 10 nM | 10 to 100 nM | 10 to 100 nM |  |  |  | 
CCCC[C@H](NC(=O)[C@H](Cc1c[nH]c2ccccc12)NC(=O)[C@H](C)NC(=O)[C@]1(C)CCCC=CCCCCCC[C@@](C)(NC(=O)[C@H](Cc2ccccc2)NC(=O)[C@@H](NC(=O)[C@H](CCC(=O)O)NC(C)=O)[C@@H](C)O)C(=O)N[C@@H](C)C(=O)N[C@@H](Cc2ccc(O)cc2)C(=O)N[C@@H](Cc2c[nH]c3ccccc23)C(=O)N[C@@H](C)C(=O)N[C@@H](CCC(N)=O)C(=O)N[C@@H](CC(C)C)C(=O)N1)C(=O)N[C@H](C)C(N)=O [compound 276] (Ac-ETF[R8]AYWAQL[S5]AW[Nle][dA]-NH2; staple 4-11) | 10 to 100 nM | < 10 nM | 10 to 100 nM | < 10 nM |  |  |  | 
CC(=O)N[C@@H](CC(C)C)C(=O)N[C@H](C(=O)N[C@@H](Cc1ccccc1)C(=O)N[C@]1(C)CCCCCCCCCCC[C@@](C)(C(=O)N[C@@H](C)C(=O)N[C@@H](C)C(=O)N[C@@H](C)C(=O)N[C@@H](C)C(=O)N[C@@H](C)C(=O)N[C@H](C)C(N)=O)NC(=O)[C@H](CC(C)C)NC(=O)[C@H](CCC(N)=O)NC(=O)[C@H](C)NC(=O)[C@H](Cc2c[nH]c3ccccc23)NC(=O)[C@H](Cc2ccc(O)cc2)NC(=O)[C@H](CCC(=O)O)NC1=O)[C@@H](C)O [compound 445] |  |  |  |  | 10 to 100 nM | < 10 nM | 100 to 1000 nM | 10 to 100 nM
CCCC[C@H](NC(=O)[C@H](C)NC(=O)[C@H](C)NC(=O)[C@]1(C)CCCC=CCCCCCC[C@@](C)(NC(=O)[C@H](Cc2ccccc2)NC(=O)[C@@H](NC(=O)[C@H](C)NC(=O)[C@H](C)NC(C)=O)[C@@H](C)O)C(=O)N[C@@H](C)C(=O)N[C@@H](Cc2ccc(O)cc2)C(=O)N[C@@H](Cc2c[nH]c3ccccc23)C(=O)N[C@@H](C)C(=O)N[C@@H](CCC(N)=O)C(=O)N[C@@H](CC(C)C)C(=O)N1)C(=O)N[C@@H](C)C(N)=O [compound 319] (Ac-AATF[R8]AYWAQL[S5]AA[Nle]A-NH2; staple 5-12) | 10 to 100 nM | 10 to 100 nM | 100 to 1000 nM | 100 to 1000 nM |  |  |  | 
CC(=O)N[C@@H](CC(C)C)C(=O)N[C@H](C(=O)N[C@@H](Cc1ccccc1)C(=O)N[C@]1(C)CCCCCCC=CCCC[C@@](C)(C(=O)N[C@@H](Cc2c[nH]cn2)C(=O)NC(C)(C)C(=O)N[C@@H](CCC(C)C)C(=O)N[C@H](C(N)=O)C(C)C)NC(=O)[C@H](CC(C)C)NC(=O)[C@H](CCC(N)=O)NC(=O)[C@H](C)NC(=O)[C@H](Cc2c[nH]c3ccccc23)NC(=O)[C@H](Cc2ccc(O)cc2)NC(=O)[C@H](C)NC1=O)[C@@H](C)O [compound 49] (Ac-LTF[R8]AYWAQL[S5]H[Aib][hLeu]V-NH2; staple 4-11) | 100 to 1000 nM | 10 to 100 nM | 100 to 1000 nM | 10 to 100 nM |  |  |  | 
